Several values for one entry are separate records, joined by “and”; a condition that tells them apart may be missing. Identical values can stand only once. Like-named read-outs stand apart in the source and are kept apart here.
Test: Plasma and CSF pharmacokinetic study, single sublingual, oral or subcutaneous dose, male Beagle dogs
Assay type: in vivo
Experimental: Animals were fed twice daily. […] Food was withheld until 4-hour post-dose.
All blood samples were collected from a peripheral vessel.
For CSF collection, a polypropylene tube was first weighted to accuracy of 0.1 mg (weight #1). CSF was collected in the tube and weighted again (weight #2). Total CSF weight was calculated by subtracting weight #1 from weight #2. Samples were kept on ice and protected from sunlight. Stabilizing agent (ascorbic acid 200 mg/mL) was added within 60 minutes in a proportion of 10% in CSF. Frozen CSF samples on dry ice were stored at −60° C. or lower until bioanalysis.
All CSF samples were added with the equal volume of plasma. […] 30 μL supernatant was then mixed with 30 μL water, vortex-mixed well and centrifuged at 4° C.
Dilution procedure description: Dilution factor as 5—An aliquot of 2 μL sample was added with 8 μL blank matrix.
The flow rate was 0.6 mL/min. The injection volume was 3 μL. The following gradient was implemented: […]

[1] = male Beagle dogs (fasted), single SL 5 mg/kg, plasma, individual dogs
[2] = male, beagle, dog, in vivo, 5 mg/kg, CSF concentration
[3] = male, beagle, dog, in vivo, 5 mg/kg, plasma concentration
[4] = male, beagle, dog, in vivo, po, 10 mg/kg, CSF concentration
[5] = male, beagle, dog, in vivo, po, 10 mg/kg, plasma concentration
[6] = male, beagle, dog, in vivo, sc, 1 mg/kg, CSF concentration
[7] = male, beagle, dog, in vivo, sc, 1 mg/kg, plasma concentration

## CN1CCc2cccc3c2[C@@H]1Cc1ccc(O)c(O)c1-3
dog, in vivo, male Beagle dogs (fasted), single PO 10 mg/kg, plasma, individual dogs
  MRT inf: 8.44 h
dog, in vivo, male Beagle dogs (fasted), single SL 5 mg/kg, CSF, mean
  MRT inf: 3.18 h
dog, in vivo, male Beagle dogs (fasted), single SL 5 mg/kg, individual dogs, read-out: AUC Ratio (AUClast ratio of CSF to total plasma)
  Kp: 0.337
dog, in vivo, male Beagle dogs (fasted), single SL 5 mg/kg, plasma, mean, read-out: AUCinf
  AUC(0-inf): 162 ng·h/mL
Male Beagle dogs (fasted), single PO 10 mg/kg, plasma, individual dogs, 10 mg/kg
  AUMCExtra: 31.9%
Male Beagle dogs (fasted), single SL 5 mg/kg, CSF, individual dogs
  AUMCExtra: 5.44% and 18.5%
[1]
  AUCExtra: 7.39%
  AUMCExtra: 10.7%
male, beagle, dog, CSF, po, 10 mg/kg, male Beagle dogs (fasted), single PO 10 mg/kg, CSF, individual dogs, read-out: AUCinf
  AUC(0-inf): 181 ng·h/mL
male, beagle, dog, in vivo, 5 mg/kg, AUClast ratio of CSF to total plasma
  Kp: 1.08 ± 0.964
[2]
  concentration at 2 h: 76.2 ng/mL
  concentration at […]: 289 ng/mL
male, beagle, dog, in vivo, 5 mg/kg, male Beagle dogs (fasted), single SL 5 mg/kg, CSF, individual dogs
  AUC(0-t): 122 ng·h/mL
male, beagle, dog, in vivo, 5 mg/kg, male Beagle dogs (fasted), single SL 5 mg/kg, CSF, mean
  AUC(0-t): 162 ng·h/mL
male, beagle, dog, in vivo, 5 mg/kg, male Beagle dogs (fasted), single SL 5 mg/kg, plasma, individual dogs, read-out: Cmax
  Cmax: 162 ng/mL
male, beagle, dog, in vivo, 5 mg/kg, maximum CSF concentration (Cmax)
  Cmax: 126 ± 144 ng/mL
male, beagle, dog, in vivo, 5 mg/kg, maximum plasma concentration (Cmax)
  Cmax: 143 ± 24 ng/mL
[3]
  concentration at 0.5 h: 162 ng/mL
  concentration at 1 h: 116 ng/mL
  concentration at 2 h: 10.8 ng/mL
  concentration at 4 h: 3.39 ng/mL
  concentration at 8 h: 2.74 ng/mL
  concentration at […]: 151 ng/mL
male, beagle, dog, in vivo, 5 mg/kg, single SL 5 mg/kg, 0.500 h, individual animal, read-out: CSF concentration
  concentration at 0.5 h: 6.23 ng/mL
male, beagle, dog, in vivo, 5 mg/kg, single SL 5 mg/kg, 8.00 h, individual animal, read-out: CSF concentration
  concentration at 8 h: 1.16 ng/mL
male, beagle, dog, in vivo, 5 mg/kg, single SL 5 mg/kg, 24.0 h, individual animal, read-out: plasma concentration
  concentration at 24 h: 1.49 ng/mL
male, beagle, dog, in vivo, po, 10 mg/kg, 1 h
  plasma concentration: 63.3 ng/mL
male, beagle, dog, in vivo, po, 10 mg/kg, AUC Ratio (AUClast ratio of CSF to total plasma)
  Kp: 0.33
male, beagle, dog, in vivo, po, 10 mg/kg, AUClast ratio of CSF to total plasma
  Kp: 0.27 ± 0.0663
[4]
  concentration at 0.5 h: 48.5 ng/mL
  concentration at 4 h: 8.15 ng/mL
  concentration at […]: 24.7 ng/mL
male, beagle, dog, in vivo, po, 10 mg/kg, Tmax
  Tmax: 0.5 h
male, beagle, dog, in vivo, po, 10 mg/kg, male Beagle dogs (fasted), single PO 10 mg/kg, plasma, individual dogs, read-out: Cmax
  Cmax: 84.8 ng/mL
[5]
  concentration at 0.5 h: 78 ng/mL
  concentration at 1 h: 42.2 ng/mL
  concentration at 2 h: 22.9 ng/mL
  concentration at 4 h: 15.6 ng/mL
  concentration at 8 h: 9.36 ng/mL
  concentration at 24 h: 4.5 ng/mL
  concentration at […]: 9.2 ng/mL
male, beagle, dog, in vivo, po, 10 mg/kg, single PO 10 mg/kg, 0.500 h, individual animal, read-out: CSF concentration
  concentration at 0.5 h: 17.8 ng/mL
male, beagle, dog, in vivo, po, 10 mg/kg, single PO 10 mg/kg, 4.00 h, individual animal, read-out: CSF concentration
  concentration at 4 h: 12.4 ng/mL
male, beagle, dog, in vivo, sc, 1 mg/kg, 1 h
  plasma concentration: 20.7 ng/mL
male, beagle, dog, in vivo, sc, 1 mg/kg, 2 h
  plasma concentration: 2.17 ng/mL
male, beagle, dog, in vivo, sc, 1 mg/kg, AUC Ratio
  Kp: 0.806
male, beagle, dog, in vivo, sc, 1 mg/kg, AUCinf
  AUC(0-inf): 88.4 ± 23.8 ng·h/mL
male, beagle, dog, in vivo, sc, 1 mg/kg, AUClast ratio of CSF to total plasma
  Kp: 0.964 ± 0.456
[6]
  concentration at 0.033 h: 1.73 ng/mL
  concentration at 0.5 h: 15.6 ng/mL
  concentration at 2 h: 6.55 ng/mL
  concentration at 8 h: 10.8 ng/mL
male, beagle, dog, in vivo, sc, 1 mg/kg, CSF, single SC 1 mg/kg, individual animal
  AUC(0-t): 119 ng·h/mL
male, beagle, dog, in vivo, sc, 1 mg/kg, plasma Cmax
  Cmax: 110 ± 19.4 ng/mL
[7]
  concentration at 0.5 h: 76.6 ng/mL
  concentration at 1 h: 27.9 ng/mL
  concentration at 2 h: 3.58 ng/mL
  concentration at 4 h: 1.11 ng/mL
  concentration at 24 h: 1.04 ng/mL
  concentration at […]: 89.2 ng/mL
male, beagle, dog, in vivo, sc, 1 mg/kg, plasma, single SC 1 mg/kg, individual animal, read-out: Cmax
  Cmax: 113 ng/mL
male, beagle, dog, in vivo, sc, 1 mg/kg, single SC 1 mg/kg, 119 s, individual animal, read-out: CSF concentration
  concentration at 0.033 h: 22.6 ng/mL
male, beagle, dog, in vivo, sc, 1 mg/kg, single SC 1 mg/kg, 119 s, mean, read-out: CSF concentration
  concentration at 0.033 h: 12.2 ng/mL
male, beagle, dog, in vivo, sc, 1 mg/kg, single SC 1 mg/kg, 0.500 h, individual animal, read-out: CSF concentration
  concentration at 0.5 h: 17.8 ng/mL
male, beagle, dog, in vivo, sc, 1 mg/kg, single SC 1 mg/kg, 1.00 h, individual animal, read-out: plasma concentration
  concentration at 1 h: 11.9 ng/mL
male, beagle, dog, in vivo, sc, 1 mg/kg, single SC 1 mg/kg, 1.00 h, mean, read-out: CSF concentration
  concentration at 1 h: 11.6 ng/mL
male, beagle, dog, in vivo, sc, 1 mg/kg, single SC 1 mg/kg, 2.00 h, individual animal, read-out: CSF concentration
  concentration at 2 h: 12.8 ng/mL
male, beagle, dog, in vivo, sc, 1 mg/kg, single SC 1 mg/kg, 4.00 h, individual animal, read-out: CSF concentration
  concentration at 4 h: 10.2 ng/mL
male, beagle, dog, in vivo, sc, 1 mg/kg, single SC 1 mg/kg, 8.00 h, individual animal, read-out: CSF concentration
  concentration at 8 h: 4.37 ng/mL

From patent US20230141988A1, “PHARMACEUTICAL COMPOSITION FOR USE IN THE TREATMENT OF NEUROLOGICAL DISEASES” (Aclipse One Inc., priority 2020, published 2023)
